In assay [1] the test system is Rattus norvegicus. As to the kind of experiment: Antiinflammatory activity in Wistar rat assessed as inhibition of carrageenan-induced paw edema at 10 mg/kg, po administered 1 hr before carrageenan challenge and measured 2 hrs post carrageenan challenge relative to untreated control. The class given is functional.
In assay [2] the test system is Rattus norvegicus. As to the kind of experiment: Antiinflammatory activity in Wistar rat assessed as inhibition of carrageenan-induced paw edema at 10 mg/kg, po administered 1 hr before carrageenan challenge and measured 4 hrs post carrageenan challenge relative to untreated control. In kind it is functional. (In general: The carrageenan paw model is a standard test of acute inflammation.)

The inhibition in vivo is the drop in the measured response relative to a control, in per cent. `NC(=O)c1c(-c2ccccc2)cc(C(F)(F)F)c2c1N=C(c1ccco1)N1CCN=C21`: the inhibition in vivo at 10 mg/kg worked out at 31% in the assay with Rattus norvegicus [1] and 30% in the assay on Rattus norvegicus [2].
For `NC(=O)c1c(C(F)(F)F)cc(-c2ccccc2)c2c1N=C(c1ccco1)N1CCN=C21` the same measures were 29% and 28%.
On to `NC(=O)c1c(-c2ccccc2)cc(C(F)(F)F)c2c1N=C(c1ccc(O)cc1)N1CCN=C21`, for which the inhibition in vivo at 10 mg/kg came to 61% in the assay on Rattus norvegicus [1] and 60% in the assay on Rattus norvegicus [2].
Take `NC(=O)c1c(C(F)(F)F)cc(-c2ccccc2)c2c1N=C(c1ccc(O)cc1)N1CCN=C21`: the figures for the inhibition in vivo at 10 mg/kg with Rattus norvegicus [1] and in the assay on Rattus norvegicus [2] were 59% and 57%, respectively.
For `NC(=O)c1c(-c2ccccc2)cc(C(F)(F)F)c2c1N=C(c1cccs1)N1CCN=C21` the same measures were 25% and 24%.
For `NC(=O)c1c(C(F)(F)F)cc(-c2ccccc2)c2c1N=C(c1cccs1)N1CCN=C21` the same measures were 34% and 33%.
For `COc1ccc2c(c1)c(CC(=O)O)c(C)n2C(=O)c1ccc(Cl)cc1` [INDOMETHACIN] the same measures were 79% and 75%.
